We go through 1 substance from article PMC8457056, “Remodeling of the Fibrillation Pathway of α‐Synuclein by Interaction with Antimicrobial Peptide LL‐III” (Chemistry (Weinheim an Der Bergstrasse, Germany), 2021).

The nature of one series: net charge of LL-III. It is filed as physicochemical.
The subject of series [1] is neuronal SH‐SY5Y cells stably expressing an α‐Syn‐GFP fusion protein. Nature of the series: PFF-induced α-Syn-GFP aggregation in SH-SY5Y cells (structured-illumination microscopy). It is filed as cell-based. The note with it: 1 μM LL-III 1 h before PFF; for cells with α‐Syn‐GFP aggregates: 5 independent experiments, at least 150 cells per condition. Here is the method:
Finally, to test the anti‐aggregation activity of LL‐III in a cellular model, we used the α‐Syn pre‐formed fibril (PFF) model, which involves conversion of recombinant monomeric α‐Syn protein into fibrillar seeds that were added to neuronal SH‐SY5Y cells stably expressing an α‐Syn‐GFP fusion protein.[32, 33] In brief, untreated cells expressed soluble α‐Syn‐GFP that was rather homogenously distributed throughout the cells (Figure 3, left panel). Treatment of cells with PFF seeds caused aggregation of α‐Syn‐GFP, reflected by the formation of GFP‐positive foci (Figure 3, middle and right panel). These α‐Syn‐GFP aggregates could be visualized already 24 h after PFF treatment by fluorescence super‐resolution structured illumination microscopy.
Figure 3 LL‐III decreases PFF‐induced α‐Syn aggregation in neuronal cells. SH‐SY5Y cells stably expressing α‐Syn‐GFP were pre‐treated without or with LL‐III 1 h before adding PFF seeds to induce α‐Syn aggregation. A. α‐Syn was visualized by structured‐illumination microscopy 24 h and 48 h after PFF treatment. Green: α‐Syn (GFP), blue: nuclei (DAPI). B. Quantification of cells with α‐Syn aggregates was based on 5 independent experiments. In total, at least 150 cells were counted per condition. Data were processed by a Kolmogorov‐Smirnov test for Gaussian distribution followed by an unpaired two‐tailed Student's t‐test. *** p≤0.001.
LL‐III was pre‐incubated with α‐Syn‐GFP‐expressing SH‐SY5Y cells at a concentration of 1 μM one hour before PFF treatment to allow cellular uptake of LL‐III. The number of cells with α‐Syn‐GFP aggregates was quantified 24 h and 48 h after PFF seeding. […]
µM) and following the anisotropy changes of the Trp residue. […] The anisotropy was evaluated at 354 nm which corresponds to the maximum of emission of the free peptide. […]
Far-UV circular dichroism (CD) spectra were recorded by using a Jasco J- 715 spectropolarimeter from Jasco Cor-poration (Tokyo, Japan). […] A blank spectrum of 20 mM sodium acetate buffer, pH 5.0, was recorded and subtracted from all the samples spectra. […]

With NH2-VNWKKIL GKIIKVVK -CONH2 [LL‐III], the “net charge at pH 5.0” value in “net charge of LL-III” (also at the lower pH of pH 5.0) was “+6”. The “net charge at pH 7.4” value in “net charge of LL-III” (pH 7.4) is “+6”. The “cells with α‐Syn‐GFP aggregates” value was found to be 30% in series [1] (24 h after PFF seeding, without LL-III 48 %) and 36% in series [1] (48 h after PFF seeding, without LL-III 54 %). Also, the “change in number of cells with aggregates” value in series [1] (24 h and 48 h) is recorded as “significantly decreased”.
